These results are taken from ChEMBL document CHEMBL1828607, “N-Heteroaryl glycinamides and glycinamines as potent NPY5 antagonists” (Bioorg Med Chem Lett, 2011).

In brackets after ≈: the same amount, converted by molar mass.

Data set [1] in a line: in vivo. The following applies: Sprague-Dawley, rat, brain, po, 10 mg/kg.
Description: Drug level in femoral artery cannulated Sprague-Dawley rat brain at 10 mg/kg, po after 1 hr by LC/MS/MS method
The nature of data set [2]: in vivo. As to conditions: Sprague-Dawley, rat, plasma, po, 10 mg/kg.
Description: Drug level in femoral artery cannulated Sprague-Dawley rat plasma at 10 mg/kg, po after 1 hr by LC/MS/MS method
Data set [3] can be described thus: in vivo. The following applies: Sprague-Dawley, rat, brain/plasma, po, 10 mg/kg.
Description: Ratio of drug level in brain to plasma in femoral artery cannulated Sprague-Dawley rat at 10 mg/kg, po after 1 hr by LC/MS/MS method
Data set [4] can be described thus: physchem. As to conditions: buffer, pH 7.4.
Description: Solubility of the compound at pH 7.4
Data set [5] is described as follows: physchem. The following applies: octanol/water.
Description: Lipophilicity, log D of the compound

One may read the Kp as the ratio of the level in a tissue or fluid to that in plasma or blood. Regarding `CC(C)S(=O)(=O)NC[C@H]1CC[C@H](NC(=O)CN2C(=O)COc3cc(Cl)ccc32)CC1`, the concentration at 1 h came out at 0.033 µM in data set [1] and 0.481 µM in data set [2]. The same molecule displayed a Kp at 1 h in data set [3] of 0.07.

By solubility is commonly meant the dissolved amount per volume that the medium holds. The logD is lipophilicity at a set pH, counting ionised and neutral species. A lower logD goes with lower lipophilicity. As for `CN(C)S(=O)(=O)NC[C@H]1CC[C@H](NC(=O)CN2C(=O)CC(C)(C)Sc3ccccc32)CC1`, the concentration at 1 h in data set [2] amounted to 0.0015 µM. The molecule also came in with a solubility in data set [4] of 0.44 mg/mL (≈ 912 µM). This molecule displayed a logD in data set [5] of 2.4.

`CC(C)S(=O)(=O)NC[C@H]1CC[C@H](NC(=O)CN2CCOc3cc(Cl)ccc32)CC1`: the values for the concentration at 1 h in data set [1] and in data set [2] were 0.043 µM and 0.43 µM, respectively. Moreover, the Kp at 1 h in data set [3] turned out to be 0.1.

In the case of `CC(C)S(=O)(=O)NC[C@H]1CC[C@H](NC(=O)CN2C(=O)CCc3cc(Cl)ccc32)CC1`, the concentration at 1 h amounted to 0.016 µM in data set [1] and 0.879 µM in data set [2]. In data set [3], this molecule showed a Kp at 1 h of 0.02.
